Measured values from US10196417B2, “Baicalin magnesium compound and its preparation method and application” (CHENGDE MEDICAL UNIVERSITY, priority 2016, dated 2019).
In brackets after ≈: the same amount, converted by molar mass. Marks after values point to notes of the source that are not given here.

Experiments:
[1] = system: xylene-induced ear swelling in mice; experiment: Anti-inflammatory activity: xylene-induced ear swelling; type: in vivo; settings: n = 8
Experimental: 144 healthy mice were randomly divided into 3 groups, a baicalin group, a baicalin magnesium group and a control group. Each group was divided into six subgroups each having 8 mice according to time points (1 h, 3 h, 5 h, 7 h, 11 h and 15 h). Mice in the baicalin group were orally administrated (ig administration) at a dose of 100 mg·kg-1; mice in the baicalin magnesium group were orally administrated (ig administration) at a dose equivalent to 100 mg·kg-1 of baicalin; and mice in the control group were administrated with the same volume of normal saline. At 40 minutes before each time point, 100 μl of xylene was dropped in left ears of the mice in each group; when at a time point, the animals were sacrificed. Auricles of both ears of the mice were obtained with a puncher, and the difference in weight (swelling degree) between the left ear and the right ear was used as an indication of the anti-inflammatory effect of the drug.

[2] = system: acetic acid-induced pain in mice; experiment: Analgesia: acetic acid-induced writhing; type: in vivo; settings: 0.067 g/kg (baicalin equivalent) intragastric once per day 7 days; for Analgesia %: vs blank control; for Number of writhing: writhing within 15 minutes after 0.6% acetic acid i.p.
Experimental: 40 mice, 20-22 g in weight, were randomly divided into 4 groups each having 10 mice, a baicalin (0.067 g/kg) group, a baicalin magnesium (equivalent to 0.067 g/kg of baicalin) group, a blank control group (administrated with normal saline), and an aspirin positive control group (0.15 g/kg). The mice were intragastrically administrated once per day for successive 7 days. After 30 minutes of final administration, the mice were intraperitoneally injected with 0.6% acetic acid saline solution at a dose of 0.2 mL/10 g; the number of writhing responses in the mice within 15 minutes was counted. Analgesia % was calculated as follows: Analgesia %=[(average number of writhing responses of the blank control group−average number of writhing responses of the drug administration group)/average number of writhing responses of the blank control group]×100%. Single-factor variance analysis was performed on data by the SPSS19.0 statistical software, and P<0.05 was of statistical significance.

[3] = system: streptozotocin-induced diabetes rats (high-fat diet); experiment: Antidiabetic effect: blood glucose in streptozotocin-induced diabetes; type: in vivo, SD male rats; settings: 80 mg/kg baicalin or equivalent intragastric daily
Experimental: Healthy SD male rats aged 6 to 8 weeks were randomly divided into 4 groups, a high-fat diet control group, a diabetes control group, a baicalin treatment group and a baicalin magnesium treatment group. The rats were raised for 1 week in advance. In the second week, all rats were fed with high-fat diet. After six weeks, the rats were fasted but with water for 12 hours. For the diabetes control group, the baicalin treatment group and the baicalin magnesium treatment group, rats were administrated by tail vein injection with 45 mg/kg of streptozotocin prepared from citrate buffer solution (pH=4.5). After 3 to 7 days, the fasting blood glucose was measured. The blood glucose level greater than 13 mmol/L was a criterion for the successful diabetes rate model. The rats in the high-fat diet control group were administrated by tail vein injection with the citrate buffer solution. After the model was built, the rats were intragastrically administrated in the morning every day. The rats in the baicalin group were administrated with baicalin at a dose of 80 mg/kg; the rates in the […] were administrated with baicalin magnesium at a dose equivalent to 80 mg/kg of baicalin; and the rats in the diabetes model group and the high-fat diet control group were intragastrically administrated the same volume of solvent once every day and for successive 6 weeks. After the molding and the administration, the blood glucose was measured in the third week and the sixth week. Single-factor variance analysis was performed on data by SPSS19.0 statistical software, and P<0.05 was of statistical significance.

[4] = system: mice with cerebral ischemia; experiment: Learning and memory function in mice with cerebral ischemia (water maze test); type: in vivo; settings: i.p. 12.5 mg/kg baicalin or equivalent for 12 days after carotid clipping 20 min
Experimental: 80 healthy mice were randomly divided into 4 groups each having 20 mice, a model group, a sham-operation group, a baicalin group and a baicalin magnesium group. For the model group, mice were intraperitoneally injected with 1% of pentobarbital sodium for anesthesia, and then the left and right common carotid arteries were exposed and separated. The left and right arteries were immediately clipped with a vessel clamp for 20 minutes. The vessel clamp then were released; arteries were sutured; and the mice were put back in the cage for breeding. For the sham-operation group, the left and right common carotid arteries were exposed by the same method as above but without clipping. The left and right arteries were sutured, and the mice were put back in the cage for breeding. For the baicalin group, the operation was the same as that for the model group, and on the second day after the operation the mice were intraperitoneally injected with 12.5 mg/kg of baicalin for successive 12 days. For the baicalin magnesium group, the operation was the same as that for the model group, and on the second day after the operation the mice were intraperitoneally injected with baicalin magnesium (at a dose equivalent to 12.5 mg/kg of baicalin) for successive 12 days. The mice in the sham-operation group and the model group were administrated with the same volume of normal saline. Water Maze Test: a circular water tank for test was 120 cm in diameter and 60 cm in height; a cylindrical platform was 10 cm in diameter and 40 cm in height; and an interior of the circular water tank was black. A camera connected to a display was provided to record the movement of mice. During the test, the water depth was 12 cm, and the water temperature was (25±2) ° C. All space signs around the maze remained unchanged throughout the test. Water Maze Test for Memory: on the day before the beginning of the test, each of mice were familiar with the water environment in the maze for 2 minutes. The mice were randomly placed in water close to walls of maze from four different quadrants (North, West, South and East, in one period of time), and the time from the mice entering water to climbing on the platform was recorded as an escape latency. […] The mice were continuously trained for 15 days at a frequency of two times of training per day. Each group of animals was subjected to a water maze test in turn. The path on the first day had two blind ends; the path on the second day had three blind ends; and the path on the third day, the fourth day and the fifth day had four blind ends. The mice were placed in water toward the walls, and the time from the mice entering water to arriving at the platform (latency) and the number of entering the blind ends were recorded. […]

[5] = Water solubility at 37° C. (equilibrium solubility method); type: physicochemical; settings: for solubility: 37 °C, thermodynamic from solid
Experimental: The solubility of the baicalin and the solubility of the baicalin magnesium in water at 37° C. were measured by a conventional solubility measurement method.

[6] = 1 h after oral 100 mg/kg baicalin or equivalent
[7] = 3 h after oral 100 mg/kg baicalin or equivalent
[8] = 5 h after oral 100 mg/kg baicalin or equivalent
[9] = 7 h after oral 100 mg/kg baicalin or equivalent
[10] = 11 h after oral 100 mg/kg baicalin or equivalent
[11] = 15 h after oral 100 mg/kg baicalin or equivalent
[12] = 0 (after the molding, start of administration)

SMILES | Ear swelling degree (difference in weight left vs right ear) [1, 6] | Ear swelling degree (difference in weight left vs right ear) [1, 7] [mg] | Ear swelling degree (difference in weight left vs right ear) [1, 8] [mg] | Ear swelling degree (difference in weight left vs right ear) [1, 9] [mg] | Ear swelling degree (difference in weight left vs right ear) [1, 10] | Ear swelling degree (difference in weight left vs right ear) [1, 11] | Analgesia % [2] | Number of writhing [2] | Blood Glucose [3, 12] [mmol/L] | Blood Glucose ([3]; 3 weeks) | Blood Glucose ([3]; 6 weeks) | Escape Latency [4] | Number of Errors [4] | Water solubility relative to the solubility of the baicalin ([5]; 37° C.) [times] | solubility [5] [mg/mL]
O=C(O)C1O[C@@H](Oc2cc3oc(-c4ccccc4)cc(=O)c3c(O)c2O)C(O)[C@@H](O)[C@@H]1O (some centres unmarked) [Baicalin Magnesium, baicalin magnesium] | 5.87 ± 2.05*^Δ mg | 4.57 ± 3.56 | 4.63 ± 2.78 | 5.87 ± 3.43 | 6.77 ± 3.75*^Δ mg | 7.97 ± 2.85^Δ mg | 60.6*^Δ % | 10.43 ± 3.56*^Δ | 22.32 ± 2.23 | 19.46 ± 3.59*^Δ# mmol/L | 17.58 ± 2.6*^Δ# mmol/L | 26.54 ± 8.34*^Δ s | 3.82 ± 2.12*^Δ | 2225 | 129 (≈ 289 mM)
O=C(O)[C@H]1O[C@@H](Oc2cc3oc(-c4ccccc4)cc(=O)c3c(O)c2O)[C@H](O)[C@@H](O)[C@@H]1O [Baicalin] | 7.57 ± 3.05 mg | 4.66 ± 2.76 | 4.88 ± 1.99 | 6.77 ± 2.54 | 7.89 ± 2.98 mg | 9.12 ± 1.98 mg | 33.7* % | 17.54 ± 4.44 | 23.54 ± 2.5 | 21.45 ± 2.6 mmol/L | 20.14 ± 2.6 mmol/L | 38.88 ± 11.99 s | 4.56 ± 3.78 |  | 0.058 (≈ 0.13 mM)
